What was measured:
[1] = tested on: Maus; conditions: p.o., acute toxicity; cited from earlier work
[2] = tested on: cardialen β-Rezeptoren; assay: LV-dP/dtmax (cardiac contractility) response to isoprenaline in anaesthetised, despinalised rats before and after PAF infusion; assay type: in vivo, Ratten; set-up: Steigerung von LV-dP/dtmax durch Isoprenalin (Ansprechbarkeit der cardialen β-Rezeptoren): dose or concentration left out as unconfirmed; conditions: for Steigerung LV-dP/dtmax: despinalised rats, n=6, control before PAF
Description: Die neu aufgefundene Wirkung der PAF-Antagonisten wurde beispielsweise an B = 4-(2-Chlorphenyl)-9-methyl-2-[3-(4-morpholinyl)-3-propanon-1-yl]-6H-thieno[3.2-f][1.2.4]triazolo[4.3-a][1.4]-diazepin wie folgt geprüft: Männliche Ratten (Chbb:THOM, ca. 300 g) werden mit Hexobarbital-Natrium (150 mg/kg i.p.) narkotisiert. Die Trachea wird kannuliert und danach werden die Tiere despinalisiert. Die Tiere werden künstlich beatmet und mittels einem Heizkissen auf 37°C gehalten. Zur Messung des linksventrikulärem Drucks wird über die Arteria Carotis in den linken Ventrikel ein Millar Tipmanometer geschoben. Dieses Signal wird elektronisch differentiert und ist als LV-dP/dtmax ein Maß für die Kontraktionskraft des Herzes. Über einen Katheter in der anderen Arteria Carotis wird der arterielle Blutdruck gemessen. Die zu untersuchenden Substanzen werden intravenös über eine Kanüle in der Vena jugularis injiziert.
Isoprenalin (3-100 ng/kg) steigert dosisabhänig LV-dP/dtmax von 300 ± 90 bis 4450 ± 290 mm Hg/s (n=6). Nach einer 45-minütigen Infusion von PAF (50-100 ng/kg/min.) wurde wieder Isoprenalin (3 bis 100 ng/kg) injiziert. […] Dann wurde die Substanz B (10 mg/kg i.v.) verabreicht und nach 10 Minuten wurde wieder Isoprenalin injiziert.

Cc1nnc2n1-c1sc3c(c1C(c1ccccc1Cl)=NC2)CC(C(=O)N1CCOCC1)C3 (single isomer, unassigned; (-)) [Substanz A, (-)-6-(2-Chlorphenyl)-8,9-dihydro-1-methyl-8-[(4-morpholinyl)carbonyl]-4H,7H-cyclopenta[4.5]thieno[3,2-f][1.2.4]triazolo[4.3-a][1.4]diazepin]
LD₅₀ [1]: 1960 mg/kg

CC(C)NCC(O)c1ccc(O)c(O)c1 (stereo not drawn) [Isoprenalin]
Steigerung LV-dP/dtmax ([2]; Isoprenalin 3 ng/kg i.v. (lower end of dose range 3-100 ng/kg)): 300 ± 90 mm Hg/s | Steigerung LV-dP/dtmax ([2]; Isoprenalin 100 ng/kg i.v. (upper end of dose range 3-100 ng/kg)): 4450 ± 290 mm Hg/s

CCCCCCCCCCCCCCCCOCC(COP(=O)([O-])OCC[N+](C)(C)C)OC(C)=O (stereo not drawn) [PAF]
Effekte von 3 und 10 ng/kg Isoprenalin (LV-dP/dtmax) ([2]; after 45 min infusion of PAF 50-100 ng/kg/min, rats): nicht beeinflußt | positiv inotrope Wirkung von dem Histamin-2 Agonist Dimaprit ([2]; effect of PAF on Dimaprit 1-10 mg/kg): absolut nicht beeinflußt | positiv inotrope Wirkung von dem Adenylcyclase Aktivator Forskolin ([2]; effect of PAF on Forskolin 3-20 µg/kg): absolut nicht beeinflußt

Cc1nnc2n1-c1sc(CCC(=O)N3CCOCC3)cc1C(c1ccccc1Cl)=NC2 [Substanz B, 4-(2-Chlorphenyl)-9-methyl-2-[3-(4-morpholinyl)-3-propanon-1-yl]-6H-thieno[3.2-f][1.2.4]triazolo[4.3-a][1.4]diazepin]
Steigerung von LV-dP/dtmax durch Isoprenalin (Ansprechbarkeit der cardialen β-Rezeptoren) ([2]; isoprenaline injected again after 10 min, responsiveness fully restored, rats): nicht signifikant unterschiedlich von den Kontrollwerten | LD₅₀ [1]: 4600 mg/kg

CCCN(CCC)C(=O)C1Cc2sc3c(c2C1)C(c1ccccc1Cl)=NCc1nnc(C)n1-3 (stereo not drawn) [Substanz C]
LD₅₀ [1]: 1700 mg/kg
